How the values were obtained:
Test in all cases: Weeding effect in post-emergence stage
Assay type in all cases: in vivo
Conditions in all cases: Dose 15 g/ha; level of fresh weight growth control rate
Echinochloa crusgalli = tested on: Echinochloa crusgalli
Method in brief: (§1)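 Weeds were treated post-emergence at 2-3 leaves with compound doses from 7.5 up to 500 g/ha, formulated in acetone–Tween 80 with methyl oleate synergist. Efficacy was assessed as growth control after 3 weeks.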

Digitaria sanguinalis = tested on: Digitaria sanguinalis
Method in brief: as §1

Setaria viridis = tested on: Setaria viridis
Method in brief: as §1

Abutilon theophrasti = tested on: Abutilon theophrasti
Method in brief: as §1

Eleusine indica = tested on: Eleusine indica
Method in brief: as §1

Alopecurus japonicus = tested on: Alopecurus japonicus
Method in brief: as §1

Row | Structure (SMILES) | Weeding effect in post-emergence stage, Echinochloa crusgalli (Echinochloa crusgalli) | Weeding effect in post-emergence stage, Digitaria sanguinalis (Digitaria sanguinalis) | Weeding effect in post-emergence stage, Setaria viridis (Setaria viridis) | Weeding effect in post-emergence stage, Abutilon theophrasti (Abutilon theophrasti) | Weeding effect in post-emergence stage, Eleusine indica (Eleusine indica) | Weeding effect in post-emergence stage, Alopecurus japonicus (Alopecurus japonicus)
1 | CC(C)=NOC(=O)C(C)O/N=C/c1cc(-n2c(=O)n(C)c(=S)n(C)c2=O)c(F)cc1Cl (stereo not drawn) [Compound 20] | 5 (Level 5: growth control rate is above 85%) | 5 (Level 5: growth control rate is above 85%) | 5 (Level 5: growth control rate is above 85%) | 5 (Level 5: growth control rate is above 85%) | 5 (Level 5: growth control rate is above 85%) | 5 (Level 5: growth control rate is above 85%)
2 | CC(O/N=C/c1cc(-n2c(=O)n(C)c(=S)n(C)c2=O)c(F)cc1Cl)C(=O)OCC1CCCO1 (stereo not drawn) [Compound 24] | 5 (Level 5: growth control rate is above 85%) | 5 (Level 5: growth control rate is above 85%) | 5 (Level 5: growth control rate is above 85%) | 5 (Level 5: growth control rate is above 85%) | 5 (Level 5: growth control rate is above 85%) | 5 (Level 5: growth control rate is above 85%)
3 | CC(O/N=C/c1cc(-n2c(=O)n(C)c(=S)n(C)c2=O)c(F)cc1Cl)C(=O)OCc1ccco1 (stereo not drawn) [Compound 26] | 5 (Level 5: growth control rate is above 85%) | 5 (Level 5: growth control rate is above 85%) | 5 (Level 5: growth control rate is above 85%) | 5 (Level 5: growth control rate is above 85%) | 5 (Level 5: growth control rate is above 85%) | 5 (Level 5: growth control rate is above 85%)
4 | CC(O/N=C/c1cc(-n2c(=O)n(C)c(=S)n(C)c2=O)c(F)cc1Cl)C(=O)OCc1ccccc1 (stereo not drawn) [Compound 42] | 5 (Level 5: growth control rate is above 85%) | 5 (Level 5: growth control rate is above 85%) | 5 (Level 5: growth control rate is above 85%) | 5 (Level 5: growth control rate is above 85%) | 5 (Level 5: growth control rate is above 85%) | 4 (Level 4: growth control rate is greater than or equal to 60% and less than 85%)
5 | CC(O/N=C/c1cc(-n2c(=O)n(C)c(=S)n(C)c2=O)c(F)cc1Cl)C(=O)OCc1ccncc1 (stereo not drawn) [Compound 60] | 5 (Level 5: growth control rate is above 85%) | 5 (Level 5: growth control rate is above 85%) | 5 (Level 5: growth control rate is above 85%) | 5 (Level 5: growth control rate is above 85%) | 5 (Level 5: growth control rate is above 85%) | 4 (Level 4: growth control rate is greater than or equal to 60% and less than 85%)
6 | CCC(O/N=C/c1cc(-n2c(=O)n(C)c(=S)n(C)c2=O)c(F)cc1Cl)C(=O)OC (stereo not drawn) [Compound 72] | 5 (Level 5: growth control rate is above 85%) | 5 (Level 5: growth control rate is above 85%) | 5 (Level 5: growth control rate is above 85%) | 5 (Level 5: growth control rate is above 85%) | 5 (Level 5: growth control rate is above 85%) | 4 (Level 4: growth control rate is greater than or equal to 60% and less than 85%)
7 | CCOC(=O)C(O/N=C/c1cc(-n2c(=O)n(C)c(=S)n(C)c2=O)c(F)cc1Cl)C1CC1 (stereo not drawn) [Compound 76] | 5 (Level 5: growth control rate is above 85%) | 5 (Level 5: growth control rate is above 85%) | 5 (Level 5: growth control rate is above 85%) | 5 (Level 5: growth control rate is above 85%) | 5 (Level 5: growth control rate is above 85%) | 5 (Level 5: growth control rate is above 85%)
8 | COCC(O/N=C/c1cc(-n2c(=O)n(C)c(=S)n(C)c2=O)c(F)cc1Cl)C(=O)OC (stereo not drawn) [Compound 80] | 5 (Level 5: growth control rate is above 85%) | 5 (Level 5: growth control rate is above 85%) | 5 (Level 5: growth control rate is above 85%) | 5 (Level 5: growth control rate is above 85%) | 5 (Level 5: growth control rate is above 85%) | 5 (Level 5: growth control rate is above 85%)
9 | COC(=O)C(C)O/N=C/c1cc(-n2c(=O)n(C)c(=S)n(C)c2=O)c(F)cc1Br (stereo not drawn) [Compound 83] | 5 (Level 5: growth control rate is above 85%) | 4 (Level 4: growth control rate is greater than or equal to 60% and less than 85%) | 5 (Level 5: growth control rate is above 85%) | 5 (Level 5: growth control rate is above 85%) | 5 (Level 5: growth control rate is above 85%) | 4 (Level 4: growth control rate is greater than or equal to 60% and less than 85%)
10 | CCOC(=O)C(C)O/N=C/c1cc(-n2c(=O)n(C)c(=S)n(C)c2=O)c(F)cc1Br (stereo not drawn) [Compound 84] | 5 (Level 5: growth control rate is above 85%) | 4 (Level 4: growth control rate is greater than or equal to 60% and less than 85%) | 5 (Level 5: growth control rate is above 85%) | 5 (Level 5: growth control rate is above 85%) | 5 (Level 5: growth control rate is above 85%) | 4 (Level 4: growth control rate is greater than or equal to 60% and less than 85%)
11 | COC(=O)C(C)(C)O/N=C/c1cc(-n2c(=O)n(C)c(=S)n(C)c2=O)c(F)cc1Cl [Compound 189] | 4 (Level 4: growth control rate is greater than or equal to 60% and less than 85%) | 4 (Level 4: growth control rate is greater than or equal to 60% and less than 85%) | 5 (Level 5: growth control rate is above 85%) | 5 (Level 5: growth control rate is above 85%) | 5 (Level 5: growth control rate is above 85%) | 4 (Level 4: growth control rate is greater than or equal to 60% and less than 85%)
12 | COCCOC(=O)C(C)O/N=C/c1cc(-n2c(=O)cc(C(F)(F)F)n(C)c2=O)c(F)cc1Cl (stereo not drawn) [Compound 230] | 5 (Level 5: growth control rate is above 85%) | 5 (Level 5: growth control rate is above 85%) | 5 (Level 5: growth control rate is above 85%) | 5 (Level 5: growth control rate is above 85%) | 5 (Level 5: growth control rate is above 85%) | 5 (Level 5: growth control rate is above 85%)
13 | CCOCCOC(=O)C(C)O/N=C/c1cc(-n2c(=O)cc(C(F)(F)F)n(C)c2=O)c(F)cc1Cl (stereo not drawn) [Compound 231] | 5 (Level 5: growth control rate is above 85%) | 5 (Level 5: growth control rate is above 85%) | 5 (Level 5: growth control rate is above 85%) | 5 (Level 5: growth control rate is above 85%) | 5 (Level 5: growth control rate is above 85%) | 5 (Level 5: growth control rate is above 85%)
14 | CCCCOCCOC(=O)C(C)O/N=C/c1cc(-n2c(=O)cc(C(F)(F)F)n(C)c2=O)c(F)cc1Cl (stereo not drawn) [Compound 232] | 5 (Level 5: growth control rate is above 85%) | 5 (Level 5: growth control rate is above 85%) | 5 (Level 5: growth control rate is above 85%) | 5 (Level 5: growth control rate is above 85%) | 5 (Level 5: growth control rate is above 85%) | 5 (Level 5: growth control rate is above 85%)
15 | CSCOC(=O)C(C)O/N=C/c1cc(-n2c(=O)cc(C(F)(F)F)n(C)c2=O)c(F)cc1Cl (stereo not drawn) [Compound 233] | 5 (Level 5: growth control rate is above 85%) | 5 (Level 5: growth control rate is above 85%) | 5 (Level 5: growth control rate is above 85%) | 5 (Level 5: growth control rate is above 85%) | 5 (Level 5: growth control rate is above 85%) | 5 (Level 5: growth control rate is above 85%)

From patent publication US20230111310A1, “CARBOXYLIC ACID DERIVATIVE-SUBSTITUTED IMINO ARYL COMPOUND, PREPARATION METHOD THEREFOR, HERBICIDAL COMPOSITION AND USE THEREOF” (Qingdao Kingagroot Chemical Compound Co., Ltd., priority 2020, published 2023)
